In experiment [1] the test system is E. faecium. As to the kind of experiment: MIC, broth microdilution. The experiment is classed as cell-based, Enterococcus faecium. The conditions noted are these: for MIC: Enterococcus faecium; for susceptibility of E. faecium: result in words. An outline of the steps:
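MIC by CLSI broth microdilution (M07-A8) in MH broth; E. aerogenes, K. pneumoniae and A. baumannii pre-grown in LB, E. faecium in BHI, at 37° C. Inoculum at initial OD600 0.03, incubated 18 hrs at 35° C., growth read as absorbance at 595 nm.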
In general terms: In broth dilution the organism is exposed to a series of concentrations in liquid medium.

The subject of experiment [2] is Exponential-phase MRSA cells. The experiment in a line: Killing kinetics assay. The conditions noted are these: 10×MIC, result in words. In kind it is cell-based, Staphylococcus aureus. The protocol:
Killing kinetics assay. An S. aureus overnight culture was diluted 1:10,000 in 25 ml fresh TSB in a 250 ml flask. In order to obtain exponential-phase cells, the diluted cell suspension was incubated at 37° C., with shaking at 225 rpm for 4 h until the OD600 nm was 0.4 (˜2×10^7 CFU/ml). 0.5 ml of the exponential phase cell culture was added to the wells of a 2 ml deep well assay block (Corning Costar 3960) containing 0.5 ml of pre-warmed TSB with twice the desired concentrations of compounds. The assay block was sealed with a gas-permeable Breathe-Easy membrane and incubated at 37° C. shaking at 225 rpm. At specific times, 50 μl samples were removed, serially diluted and spot-plated onto tryptic soy agar (TSA, BD) plates to enumerate the number of cells. These experiments were conducted in triplicate.
Colony forming unit counts of cells were measured by serial dilution and plating on TSA plates. The data points on the x-axis are below the level of detection (2×10^2 CFU/mL). Results are shown as means±s.d.; n=3.

Experiment [3] concerns MRSA strain MW2. The experiment in a line: Checkerboard assay (combination). The experiment is classed as cell-based, Staphylococcus aureus. The conditions noted are these: for Fractional inhibitory concentration index (FICI): MRSA strain MW2, synergy FICI ≤ 0.5. The protocol:
Checkerboard assay (e.g., antibiotic synergy test): The antimicrobial or antifungal activity of a combination of a compound of present application with other agents was determined through a checkerboard assay. The checkerboard method for determining synergy of synthetic retinoids with conventional antibiotics can be conducted, for example, as previously described (See, e.g., Rajamuthiah, R. et al. A defensin from the model beetle Tribolium castaneum acts synergistically with telavancin and daptomycin against multidrug resistant Staphylococcus aureus. PLoS ONE 10, e0128576 (2015)) The compounds whose combinations were being tested were arrayed in serial concentrations, vertically for one compound and horizontally for the other compound in the same 96 well microplate. 2-fold serial dilutions of each retinoid were combined with 2-fold serial dilutions of each conventional antibiotic, which created an 8×8 matrix in a 96-well microtiter plate. The rest of the procedure involving addition of pathogen and measurement of growth was carried out as described for measurement of MIC.
The Fractional Inhibitory Concentration (FIC) index for two compounds, A and B, is defined by the following equation: FIC=((A/MIC^A)+(B/MIC^B)). MIC^A and NIC^B are MICs of compound A or B respectively. (A) is the lowest concentration of compound A in combination with compound B that inhibits growth of a pathogen and (B) is the lowest concentration of compound B that inhibits growth of a pathogen.
Optical densities at 600 nm were measured after 18 h of incubation at 37° C. The results represent three independent experiments.

In experiment [4] the test system is S. aureus persister cells (stationary phase). As to the kind of experiment: Persister killing assay. The experiment is classed as cell-based, Staphylococcus aureus. The conditions noted are these: for eradication of persisters formed by S. aureus strain VRS1 and 11 clinical S. aureus strains: 10×MIC, 4 h; for viability of MW2 persister cells, single agent: 4 μg/ml CD437 or CD1530 or 10 μg/ml gentamicin alone; for time to complete eradication of MW2 persisters, combination: 4 μg/ml retinoid plus 10 μg/ml gentamicin; for bactericidal concentration against MRSA persisters: MRSA MW2 persisters. The protocol:
Persister killing assay. […] Persister cells of these 13 S. aureus strains were developed by growing cultures overnight to stationary phase at 37° C. at 225 rpm. The overnight cultures were washed three times with PBS and diluted to ˜10^7 CFU/ml with the same buffer, which is the same concentration as used in the killing kinetics assay described herein. 1 ml of the persister suspension containing appropriate concentrations of antibiotics was added to the wells of a 2 ml deep well assay block (Corning Costar 3960) and incubated at 37° C., with shaking at 225 rpm. At specific times, 50 μl samples were removed, serially diluted and spot-plated on TSA plates to enumerate the number of live cells. These experiments were conducted in triplicate.

Setting [5] is: E. faecium C68, read-out: Minimum inhibitory concentration.
[6] abbreviates: E. faecium D14, read-out: Minimum inhibitory concentration.
[7] abbreviates: E. faecium D24, read-out: Minimum inhibitory concentration.
The mark [8] stands for this setting: E. faecium D25, read-out: Minimum inhibitory concentration.
[9] abbreviates: E. faecium D29, read-out: Minimum inhibitory concentration.
Where [10] appears, read: E. faecium E007, read-out: Minimum inhibitory concentration.
Where [11] appears, read: E. faecium WB213, read-out: Minimum inhibitory concentration.
Setting [12] is: E. faecium WC176, read-out: Minimum inhibitory concentration.
The mark [13] stands for this setting: in combination with Ciprofloxacin.

SMILES strings stand for the structures. Converted amounts (≈) assume the structure as drawn. Where two headings read alike, the source gives them in different places. Bounds are passed on as bounds.

On to `O=C(O)/C=C/c1ccc(-c2ccc(O)c(C34CC5CC(CC(C5)C3)C4)c2)cc1` [Adarotene, (2E)-3-(4′-Hydroxy-3′-tricyclo[3.3.1.13,7]dec-1-yl[1,1′-biphenyl]-4-yl)-2-propenoic acid], for which the MIC in experiment [1] (setting [5]) amounted to 4 µg/mL (≈ 10.7 µM); in experiment [1] (setting [6]), 4 µg/mL (≈ 10.7 µM); in experiment [1] (setting [7]), 2 µg/mL (≈ 5.34 µM); in experiment [1] (setting [8]), 4 µg/mL (≈ 10.7 µM); in experiment [1] (setting [9]), 2 µg/mL (≈ 5.34 µM); in experiment [1] (setting [10]), 4 µg/mL (≈ 10.7 µM). Also, the MIC in experiment [1] (setting [11]) turned out to be 2 µg/mL (≈ 5.34 µM); in experiment [1] (setting [12]) it was 4 µg/mL (≈ 10.7 µM). The killing kinetics entry in experiment [2] is “fast killing kinetics”. Also, the interaction with gentamicin result in experiment [3] (MRSA MW2, result in words) is listed as “significant synergistic antimicrobial activity”. Also, the “Fractional inhibitory concentration index (FICI)” value in experiment [3] (setting [13]) is reported as 0.75; in experiment [3] (in combination with Defensin 1), 1; in experiment [3] (in combination with Gentamicin) it was 0.5; in experiment [3] (in combination with Rifampicin), 1; in experiment [3] (in combination with Vancomycin) it was 1.016. In experiment [4] (8×MIC, result in words), the “eradication of S. aureus strain MW2 persisters” value is “did not”. Moreover, the “eradication of persisters formed by S. aureus strain VRS1 and 11 clinical S. aureus strains” value (from here on “eradication of persisters formed”) in experiment [4] (result in words) is recorded as “not”.

As to `O=C(O)c1ccc2cc(-c3ccc(O)c(C45CC6CC(CC(C6)C4)C5)c3)ccc2c1` [CD437, 6-(4-hydroxy-3-tricyclo[3.3.1.13,7]dec-1-ylphenyl)-2-naphthalenecarboxylic acid], the MIC in experiment [1] (setting [7]), in experiment [1] (setting [8]), in experiment [1] (setting [9]) and in experiment [1] (setting [11]) was 1 µg/mL (≈ 2.51 µM) each time. The “susceptibility of E. faecium” value in experiment [1] is “susceptible”. In addition, in experiment [2], the killing kinetics result is listed as “fast killing kinetics”. Moreover, in experiment [3] (MRSA MW2, result in words), the “interaction with defensin 1” value was “synergism”. Further, the interaction with gentamicin result in experiment [3] (MRSA MW2, result in words) was “significant synergistic antimicrobial activity”. Further, the “viability of MW2 persister cells, single agent” value in experiment [4] is “did not significantly affect”. Besides, in experiment [4], the “time to complete eradication of MW2 persisters, combination” value is given as no more than 3 h. For the same molecule, the “eradication of persisters formed” value in experiment [4] (result in words) was “annihilated”. Besides, the “bactericidal concentration against MRSA persisters” value in experiment [4] amounted to 8 µg/mL.

In the case of `O=C(O)c1ccc(-c2ccc3cc(O)c(C45CC6CC(CC(C6)C4)C5)cc3c2)cc1` [CD1530, 4-(6-hydroxy-7-tricyclo[3.3.1.13,7]dec-1-yl-2-naphthalenyl)-benzoic acid], the MIC in experiment [1] (setting [5]) is 2 µg/mL (≈ 5.02 µM); in experiment [1] (setting [6]), 2 µg/mL (≈ 5.02 µM); in experiment [1] (setting [7]), 1 µg/mL (≈ 2.51 µM); in experiment [1] (setting [8]) it was 1 µg/mL (≈ 2.51 µM); in experiment [1] (setting [9]), 1 µg/mL (≈ 2.51 µM); in experiment [1] (setting [10]), 2 µg/mL (≈ 5.02 µM). The MIC in experiment [1] (setting [11]) was 1 µg/mL (≈ 2.51 µM); in experiment [1] (setting [12]), 2 µg/mL (≈ 5.02 µM); in experiment [1] (E. faecium, (range given for E. faecium and E. faecalis), read-out: MIC) it was 2 to 4 µg/mL (≈ 5.02 to 10 µM). Moreover, the “susceptibility of E. faecium” value in experiment [1] is given as “susceptible”. Moreover, the killing kinetics result in experiment [2] is “fast killing kinetics”. For the same molecule, the interaction with gentamicin entry in experiment [3] (MRSA MW2, result in words) is “significant synergistic antimicrobial activity”. The “Fractional inhibitory concentration index (FICI)” value in experiment [3] (setting [13]) was 0.75; in experiment [3] (in combination with Defensin 1), 1; in experiment [3] (in combination with Gentamicin) it was 0.5; in experiment [3] (in combination with Rifampicin), 0.75; in experiment [3] (in combination with Vancomycin), 1. Also, the “viability of MW2 persister cells, single agent” value in experiment [4] is listed as “did not significantly affect”. For the same molecule, in experiment [4], the “time to complete eradication of MW2 persisters, combination” value is no more than 4 h. In addition, in experiment [4] (result in words), the “eradication of persisters formed” value is given as “annihilated”. Besides, in experiment [4], the “bactericidal concentration against MRSA persisters” value is 8 µg/mL.

Values taken from US11707442B2, “Antibacterial and antifungal compounds” (The General Hospital Corporation, priority 2015, dated 2023).
